According to US20090269795A1, “Mutant alpha4betadelta GABAA receptor and methods of treating anxiety or irritability” (priority 2007, published 2009):

Columns and labels:
α1β2γ2 receptors = target: T1, α1β2γ2 receptors (Rattus norvegicus, UniProt P62813+P63138); assay: Whole cell patch clamp of GABA-gated current, recombinant receptors in HEK-293 cells; assay type: cell-based; conditions: 30 nM THP
T1 construct: expressed in transfected cells; host or cells: HEK-293
Excerpt: Recombinant receptors: Transfection—Plasmids obtained from S. Vicini (rat α1, α5, β2, β3 and γ2), P. Whiting (human α4 and δ) and N. L. Harrison (mouse α4) were propagated in E coli DH5α and prepared using Qiagen Maxi- or Midi-prep kits. (Rat, mouse and human α1, β2, β3 and γ2 subunits are identical or nearly identical.) All receptors were transfected at a 1:1:1 ratio, except α1β2γ2 (1:1:5)^12, α4βδ (5:1:5)^13 and α4β2γ2 (5:1:1). HEK-293 cells were maintained in medium (DMEM:Ham's F-12 1:1) supplemented with 10% fetal calf serum at 37° C. in a humid 5% CO2 atmosphere.
The pipet solution contained (in mM): N-methyl-D-glucamine chloride 120, Cs4BAPTA 5 (Calbiochem), Mg-ATP 5, and an ATP regeneration system (20 mM Tris phosphocreatine and creatine kinase). Internal [Cl^−] or the holding potential were varied, using gluconate as the anion, to alter the direction of Cl^− flow, corrected for the junction potential.
HEK-293 cells were maintained in medium (DMEM:Ham's F-12 1:1) supplemented with 10% fetal calf serum at 37° C. in a humid 5% CO2 atmosphere.

[1] = tested on: CA1 hippocampal pyramidal cells; assay: Input resistance and neuronal excitability (spiking), hippocampal slice; assay type: cell-based, mouse
Procedure: Tonic current was recorded as the difference current produced by 120 μM gabazine, which blocks all GABAA receptor, before and after 30 nM THP^24. Current was also recorded in response to 2 s 10 mV steps in the holding potential, and current-voltage curves generated to the steady-state current. Because fast-inactivating conductances would not be excluded in a voltage ramp, stable steady-state current responses were used instead to construct the current-voltage (IV) curves. Input resistance (Rm) was calculated from the current response to voltage steps from −60 to −40 mV using Ohm's Law. The reversal potential was determined by the […] of the IV curve (−90 to −10 mV). The gabazine-sensitive slope conductance was assessed as the slope of the linear portion of outward current plot recorded before and after THP after subtraction of the gabazine-generated current (in the presence of L-655,708 to block α5-GABAA receptors). Only data with a stable baseline and pipet access resistance <10 MΩ were included in the analysis.
Effects of THP on cell excitability were tested by monitoring spiking using cell attached patch recordings^31 in voltage clamp mode (−40 mV holding potential, 150 mM NaCl intrapipet solution) or assessing the current threshold to spiking and spike frequency in current clamp mode (0.01-0.3 nA steps, starting from −1 nA, 1 s duration). (More complete details are supplied in the Supplementary Methods.)

female C57BL6 mice = assay: Elevated plus maze (with or without restraint stress); assay type: in vivo, mouse
Excerpt: Animal subjects. Prepubertal and pubertal female C57BL6 mice (3½-6 weeks old, +/+ and δ^−/−1) were housed in a reverse light:dark cycle (12:12). Both sets of mice were originally supplied by G. Homanics (Univ. of Pittsburgh), and were bred on site, with +/+ mice supplemented from Jackson Laboratories (Bar Harbor, Me.). Initially, age-matched+/+littermates of the δ^−/−were used as controls, but because they were indistinguishable from C57BL6, data from both groups were pooled. Genotyping of the tails verified that mice were homozygous δ^−/−. Some animals (+/+ or δ^−/−) were injected with finasteride (1,(5α)-androstene-4-aza-3-one-N-tert-butyl-17β-carboxaminde, Steraloids, 50 mg kg^, −1 intraperitoneally, 3 days) to block THP synthesis^2 or oil vehicle on a daily basis 1-1.5 h before dark onset, when THP levels increase, and tested 30 min. later. The onset of puberty was determined by vaginal opening, and pubertal mice tested on the day of first metestrus, identified by vaginal morphology and verification of first estrus the previous day. Mice with vaginal smears representative of diestrus were excluded from the study. Individual stages of puberty were not distinguished, and pre-pubertal mice were used before any visible signs of pubertal development, assessed by development of the peri-vaginal area. In some cases, pubertal mice were injected with replacement THP (3α-OH-5β-pregnan-20-one, 10 mg kg^−1, intraperitoneally in oil) for three days before testing. Procedures were in accordance with the SUNY Downstate Institutional Animal Care and Use Committee.
Restraint stress. In order to test the effect stress-induced release of THP^6,46,47 on anxiety, mice were restrained in a clear Plexiglas tube-type holder (Harvard Apparatus) for 45 min. and tested 20 min. later on the elevated plus maze (see Supplementary Methods). Open arm time was evaluated for 5 min. on the elevated plus maze. A decrease in open arm time reflects an increase in anxiety^18. In all cases, the results from each mouse tested after restraint was expressed relative to the averaged results from the sham controls, which were identical to the stressed animals (age, genotype, sex, drug-injected), except that they were not subjected to restraint stress.
Elevated plus maze. Testing rodent behavior on the elevated plus maze is an established animal model of anxiety^31. The plus maze consists of four 8×35 cm arms at 90° angles, elevated 57 cm above the floor. Two arms are enclosed by 33 cm walls, and two arms have no walls (“open arms”). […] Each animal was initially acclimated to the room for 30 min-1 h before being placed in the center of the maze, and exploratory activity recorded for 5 min. […]

[2] = puberty, whole cell current clamp

T1 sequence (P62813 28-455): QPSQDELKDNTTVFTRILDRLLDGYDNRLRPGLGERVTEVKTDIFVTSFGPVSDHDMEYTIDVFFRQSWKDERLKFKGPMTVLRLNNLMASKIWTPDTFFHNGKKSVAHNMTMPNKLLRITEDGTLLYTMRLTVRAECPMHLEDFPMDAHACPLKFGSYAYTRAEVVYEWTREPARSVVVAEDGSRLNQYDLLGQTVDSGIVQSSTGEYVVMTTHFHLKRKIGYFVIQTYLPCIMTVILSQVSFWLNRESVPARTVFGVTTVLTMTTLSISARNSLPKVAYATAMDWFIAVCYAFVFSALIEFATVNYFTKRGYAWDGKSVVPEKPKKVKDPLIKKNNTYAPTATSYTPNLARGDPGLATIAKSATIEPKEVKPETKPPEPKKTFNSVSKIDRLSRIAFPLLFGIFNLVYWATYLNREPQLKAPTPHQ
T1 sequence (P63138 25-474 limits assumed): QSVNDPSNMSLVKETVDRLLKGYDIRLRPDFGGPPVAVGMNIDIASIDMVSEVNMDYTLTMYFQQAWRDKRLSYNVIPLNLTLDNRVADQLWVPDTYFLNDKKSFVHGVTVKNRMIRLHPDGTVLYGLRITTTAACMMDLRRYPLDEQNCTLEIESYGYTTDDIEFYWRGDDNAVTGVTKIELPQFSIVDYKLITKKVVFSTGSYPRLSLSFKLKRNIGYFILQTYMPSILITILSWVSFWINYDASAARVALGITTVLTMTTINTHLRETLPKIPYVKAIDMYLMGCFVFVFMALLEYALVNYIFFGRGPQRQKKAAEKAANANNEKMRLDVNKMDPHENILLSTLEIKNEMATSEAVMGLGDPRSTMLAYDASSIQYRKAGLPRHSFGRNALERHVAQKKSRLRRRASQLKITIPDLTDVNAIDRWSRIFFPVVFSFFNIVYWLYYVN
T1 sequence (P18508 39-466 partner): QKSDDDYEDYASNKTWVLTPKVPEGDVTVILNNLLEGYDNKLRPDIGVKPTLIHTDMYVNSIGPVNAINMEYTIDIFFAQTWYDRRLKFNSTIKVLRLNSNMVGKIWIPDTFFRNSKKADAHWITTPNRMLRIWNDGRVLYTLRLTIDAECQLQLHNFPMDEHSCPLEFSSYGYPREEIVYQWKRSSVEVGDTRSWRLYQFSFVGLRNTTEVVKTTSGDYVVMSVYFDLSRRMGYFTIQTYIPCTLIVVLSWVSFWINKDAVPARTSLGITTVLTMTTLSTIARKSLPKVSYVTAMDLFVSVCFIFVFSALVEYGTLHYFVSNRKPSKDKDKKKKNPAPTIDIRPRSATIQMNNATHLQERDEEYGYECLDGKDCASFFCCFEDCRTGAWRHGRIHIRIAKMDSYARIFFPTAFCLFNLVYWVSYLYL

CC(=O)[C@H]1CC[C@H]2[C@@H]3CC[C@H]4C[C@H](O)CC[C@]4(C)[C@H]3CC[C@]12C [THP, 3α-OH-5α[β]-pregnan-20-one]
effect on outward current (α1β2γ2 receptors): either increased or had no effect
increase of input resistance ([1]; 30 nM THP, puberty, 10 mV steps −60 to −40): 38±5%
effect on input resistance ([1]; before puberty): decreased input resistance
effect on neuronal excitability ([1]; before puberty): decreased neuronal excitability
effect on spiking, cell-attached ([1]; puberty): increased spiking
effect on action potential frequency [1, 2]: increased action potential frequency
effect on current threshold for spiking (I threshold) [1, 2]: reduced the amount of current necessary for triggering a spike
THP-induced increase of input resistance ([1]; slices from δ−/− mice): not seen
excitatory effect on neuronal firing ([1]; slices from δ−/− mice): not observed
decrease of open arm time (female C57BL6 mice; 10 mg kg−1 intraperitoneally, acute, after onset of puberty): 35±8%
locomotor activity (female C57BL6 mice; 10 mg kg−1 intraperitoneally, after onset of puberty): without changing locomotor activity
anxiety response to stress after steroid replacement (female C57BL6 mice; replacement THP 10 mg kg−1 i.p. for three days at puberty): did not exhibit an anxiety response to stress
